Read-outs that look alike come from different tables or passages of the source.
Legend:
HEK293 cells = experiment: RSK signaling immunoblot in HEK293 cells; assay type: cell-based, human
Description: HEK293 cells (Invitrogen, R75007) were seeded at a density of 500,000 cells per well in six-well cell culture plates (Corning Incorporated Costar #3516) in Dulbecco’s modified Eagle medium (DMEM) high-glucose + GlutaMAX Supplement, pyruvate (Thermo Fisher Scientific, catalog no. 31966-021) containing penicillin G (100 U/ml), streptomycin (100 μg/ml), and 10% (v/v) FBS. Once attached, the next day, the media were changed to serum-free and the cells were starved for 16 hours followed by compound treatment with BAY-3827, BI-D1870 (MedChemExpress, #HY-10510) ± 10 μM MK-2206 dihydrochloride (MedChemExpress, #HY-10358) with 30 min incubation at 37°C followed by coincubation with […] (MedChemExpress, #HY-18739) or vehicle for additional 30 min with final assay DMSO concentration of 0.13%. All cell lines used here were tested monthly for mycoplasma and tested negative.
Following compound treatment, the cells were washed with room temperature PBS and lysed on ice with the addition of lysis buffer [50 mM tris-HCl (pH 7.5), 150 mM NaCl, 1 mM EDTA, 1 mM EGTA, 0.27 M sucrose, 1% w/v Triton X-100, 20 mM glycerol-2 phosphate disodium, 50 mM NaF, and 5 mM Na4P2O7.10 H2O] containing proteases and phosphatase inhibitors [0.5 mM phenylmethylsulfonyl fluoride (PMSF), 1 mM benzamidine HCl, leupeptin (1 μg/ml), pepstatin A (1 μg/ml), 1 μM microcystin-LR, 1 mM Na3VO4, and 1 mM DTT]. Lysates were centrifuged at 10,000g, 4°C for 10 min, and protein concentration of the supernatant was determined with the Pierce Bradford Protein Assay Kit (Thermo Fisher Scientific, #23200) and read on the Hidex Plate Reader (software version 0.5.64.0). Samples were prepared in Laemmli sample buffer (tris 200 mM, 8% SDS, EDTA 2 mM, and 40% glycerol) supplemented with 10% DTT and boiled for 5 min at 100°C. Ten micrograms of protein per sample was run on a Criterion tris-glycine polyacrylamide gel (Bio-Rad, #5678095) and transferred to a nitrocellulose membrane. For cell signaling experiments in HEK293 cells, the samples were run on a Criterion TGX stain-free precast gel (Bio-Rad, catalog no. 5678085) with transfer to a polyvinylidene difluoride membrane performed in Bio-Rad Criterion blotter (#1704071) using tris-glycine transfer buffer (Bio-Rad, #1610734) following the manufacturer’s instructions. The membranes were probed at 4°C overnight in a 4% BSA TBS-T solution containing 0.02% sodium azide with the following antibodies where appropriate: Phospho-ACC (Ser^79) (1:1000, Cell Signaling Technology, #3661S), ACC (C83B10) (1:1000, Cell Signaling Technology, #3676S), phospho-Raptor (Ser^792) (1:1000, Cell Signaling Technology, #2083S), Raptor (24C12) (1:1000, Cell Signaling Technology, #2280S), GSK3αβ (1:2000, Sigma-Aldrich, #04-903), phospho-GSK3αβ (Ser^21/9) (D17D2) (1:1000, Cell Signaling Technology, #8566S), ERK1/2 (137F5) (1:1000, Cell Signaling Technology, #4695), phospho-ERK1/2 (Thr^202/Tyr^204) (D13.14.4E) (1:1000, Cell Signaling Technology, #4370), phospho-AMPKα (Thr^172) (40H9) (1:1000, Cell Signaling Technology, #2535S), AMPKα (1:1000, Cell Signaling Technology, #2532S), anti–glyceraldehyde-3-phosphate dehydrogenase antibody (1:5000, Cell Signaling Technology, #G8795), and vinculin (1:1000, Cell Signaling Technology, #13901). Membranes were scanned using the Odyssey Fc LiCor system (exposure time, 30 s) with densitometry analysis performed using LiCor Image Studio Lite normalizing to control loading protein. Figures were made using GraphPad Prism v10.

[1] = tested on: pSer79-ACC1 in U2OS cells; experiment: HTRF assay of Ser79-ACC1 phosphorylation in U2OS cells; assay type: cell-based, human; conditions: 10 μM
Description: (§1) Human osteosarcoma U2OS WT cells were obtained from John Rouse (MRC Protein Phosphorylation and Ubiquitylation Unit, University of Dundee) and were cultured in DMEM high glucose + GlutaMAX Supplement, pyruvate (Thermo Fisher Scientific, catalog no. 31966-021) containing penicillin G (100 U/ml), streptomycin (100 μg/ml), and 10% (v/v) FBS seeding with 50,000 cells per well in a 50-μl volume in culture 96-well cell culture plates (Corning Incorporated costar, #3599). The next day, the media were changed to 50 μl of serum-free media, and 50 μl of serum-free media containing BAY-3827 or BAY-974 was dispensed and left to incubate at 37°C for 30 min. […] HTRF assays using either phospho-Ser^79-ACC1 kit (Revvity, #64ACCPEG) or phospho-Thr^172-AMPK kit (Revvity, #64AMPKPEG) were performed in triplicate in HTRF 96-well low volume white plates (Revvity, #66PL96001) following manufacturer’s instructions. Sealed plates incubated overnight in darkness conditions were scanned at room temperature in Multimode Plate Reader EnVision (PerkinElmer) machine following HTRF setup recommendations for EnVision (Revvity), equipped with a top mirror LANCE/DELFIA single mirror (#412), a UV2 (TRF) 320 excitation filter (#111), emission filter APC 665 (#205), and second emission filter Europium 615 (#203), with a 2000-μs cycle and 60-μs delay, with the number of flashes set to 100 as well as for the 2nd detector. Results were viewed in EnVision Manager software (version 1.13.3009.1401) where 665/615 ratios were calculated, and data were normalized to control condition as %. All assay ratios between control lysate signal/nonspecific signal were greater than 2 as expected of a successful assay following the manufacturer’s instructions. Data were visualized in GraphPad Prism v10.

[2] = tested on: pThr172-AMPKα in U2OS cells; experiment: HTRF assay of Thr172-AMPKα phosphorylation in U2OS cells; assay type: cell-based, human; conditions: 10 μM
Description: as §1

[3] = tested on: AMPKα1α2+/+ control primary hepatocytes; experiment: Lipogenesis assay ([14C]-acetate incorporation into fatty acids); assay type: cell-based, mouse
Description: (§2) Mouse hepatocytes were isolated by collagenase perfusion as previously described ([47]). Hepatocytes were seeded in medium Eagle-199 (MEM-199) (#41150, Thermo Fisher Scientific) containing penicillin G (100 U/ml), streptomycin (100 μg/ml), and 10% (v/v) fetal bovine serum (FBS). Hepatocytes were left for attachment (3 to 4 hours) and serum-starved overnight at 37°C with 5% CO2 in MEM-199 supplemented with penicillin G (100 U/ml), streptomycin (100 μg/ml), 10 nM insulin, and 100 nM dexamethasone. […] Cells were then harvested in 0.5 ml of phosphate-buffered saline (PBS), transferred into 1 ml of 40% KOH and 2 ml of methanol followed by 1-hour incubation at 80°C. Lipids were […] by acidifying the samples in 37% HCl and extracted with petroleum ether. Extracts were allowed to evaporate to dryness and then dissolved in Ultima Gold scintillation fluid for determination of [^14C]-acetate incorporation into lipids.

[4] = tested on: AMPKα1α2−/− DKO primary hepatocytes; experiment: as above; assay type: cell-based, mouse
Description: as §2

RSK2 = tested on: RSK2; parameters: method as in PMID 20439741; conditions: cited from earlier work
RSK1 = tested on: RSK1; parameters: method as in PMID 20439741; conditions: cited from earlier work
AMPK [5] = tested on: AMPK; parameters: method as in PMID 20439741; conditions: cited from earlier work
AMPK [6] = tested on: AMPK; parameters: method as in PMID 29695504; conditions: 20 μM ATP; read-out: median inhibitory concentration (IC50); cited from earlier work
119 kinases = tested on: 119 kinases; parameters: method as in PMID 21740966; conditions: of 119 kinases, 1 μM; cited from earlier work

CC(C)CCN1c2nc(Nc3cc(F)c(O)c(F)c3)ncc2N(C)C(=O)C1C (stereo not drawn) [BI-D1870]
PMA-stimulated pGSK3αβ (surrogate of RSK activity) (HEK293 cells; 10 μM, in the presence of MK-2206 (10 μM)): inhibited to the same extent
ACC1 phosphorylation (HEK293 cells; serum-starved HEK293, 1 and 10 μM): no effect

NC1(c2ccc(-c3nc4ccn5c(=O)[nH]nc5c4cc3-c3ccccc3)cc2)CCC1 [MK-2206]
basal pGSK3αβ (HEK293 cells; 10 μM): reduced

O[C@@H]1CO[C@H]2[C@@H]1OC[C@H]2Oc1nc2nc(-c3ccc(-c4ccccc4)cc3)c(Cl)cc2[nH]1 [MK-8722]
pSer79-ACC1 versus vehicle [1]: significant increase
pThr172-AMPK versus vehicle [2]: significant increase
suppression of lipogenesis ([3]; compound alone, 10 μM): > 80%
effect on lipogenesis [4]: no effect

Cc1nc(Nc2n[nH]c3c2CN(C(=O)N[C@H](CN(C)C)c2ccccc2)C3(C)C)c2sccc2n1 [PF-03758309]
IC50 (RSK2): 2 nM
IC50 (RSK1): 2 nM
IC50 (AMPK [5]): 1 nM

CCCCCCCCCCCCCC(=O)O[C@@H]1[C@@H](C)[C@@]2(O)[C@@H](C=C(CO)C[C@]3(O)C(=O)C(C)=C[C@@H]23)[C@@H]2C(C)(C)[C@]12OC(C)=O [PMA, phorbol 12-myristate 13-acetate]
pERK1/2 and pGSK3αβ levels (HEK293 cells; 0.1 μM, MK-2206–treated conditions): robustly increased

CNC(=O)c1ccccc1Oc1nc(Nc2cc(OC)c(OC)c(OC)c2)ncc1Br [SBI-0206965]
IC50 (AMPK [6]): 160 nM

c1cc(-c2cnn3cc(-c4ccc(OCCN5CCCCC5)cc4)cnc23)ccn1 [compound C]
number of kinases inhibited more potently than AMPK (119 kinases): 34
restoration of MK-8722–inhibited lipogenesis ([3]; 25 μM, + MK-8722 (10 μM)): 10%

From PMC12372887, “Mechanism and cellular actions of the potent AMPK inhibitor BAY-3827” (Science Advances, 2025)
